Patent US20030176442A1, “Treatment of diabetic ulcers” (priority 2000, published 2003)

System: diabetic foot ulcer
Test: anecdotal report: insulin-dependent diabetic patient with diabetic foot ulcer treated with sildenafil
Type: in vivo, human
Details: one patient
Excerpt: The efficacy of the cGMP PDE5 inhibitors in treating neuropathy in human patients is illustrated by the following anecdotal report. The patient was an insulin-dependent diabetic who had been suffering from erectile dysfunction and who subsequently developed a diabetic foot ulcer. During treatment of their erectile dysfunction with sildenafil it was noted that their foot ulcer, which they had had for approximately two years, was healing. The patient had been through various courses of treatment with minimal results. They had seen vascular surgeons, podiatrists and had visited wound care clinics. Ultimately, they were hopitalised for approximately one month on IV antibiotics etc, and the threat was very real that the patient was going to require a below-the-knee amputation. At times the ulcer would appear to be healing only to re-occur, returning to its pre-treatment size and depth. […] The patient was instructed to continue taking 50 mg of Sildenafil once a day.

CCCc1nn(C)c2c(=O)[nH]c(-c3cc(S(=O)(=O)N4CCN(C)CC4)ccc3OCC)nc12 [Sildenafil, 5-[2-ethoxy-5-(4-methylpiperazin-1-ylsulphonyl)-phenyl]-1,6-dihydro-1-methyl-3-propylpyrazolo [4,3-d]pyrimidine-7-one]
outcome of the diabetic foot ulcer (ulcer present approximately two years, 50 mg of Sildenafil once a day): complete resolution of the diabetic foot ulcer within one month
ulcer size after start of treatment (Sildenafil treatment begun for erectile dysfunction): decreasing in size
re-occurrence of ulcer on continued treatment (same treatment (50 mg once a day) continued for the past two years): without re-occurrence
